Experimental findings from US20160129034A1, “COMBINATION OF RO5503781, CAPECITABINE AND OXALIPLANTIN FOR CANCER THERAPY” (HOFFMANN-LA ROCHE INC., priority 2013, published 2016) are described below.

The subject of this assay is LoVo cell line. As to the kind of experiment: LoVo colorectal xenograft in mice: tumor growth inhibition and survival. The format is in vivo. The settings on record: for % Inhibition (EOS) / % T/C (EOS): end of study; for Mean Tumor Volume: in mm³ (unit assumed). How it is done:
The LoVo cell line was selected for implantation in mice as it is has activation of the p53-MDM2 pathway but lacks MDM2 amplification or overexpression, which therefore is felt to be more reflective of clinical reality of the colorectal cancer patient population of interest.
Compound A and the capecitabine/oxaliplatin formulations were as follows. If not explicitly indicated otherwise, the amounts provided below are concentrations [mg/ml]. Compound A is used at concentrations of 10 mg/ml and 12.5 mg/ml. Capecitabine is used at concentrations of 12.5 mg/ml, 25 mg/ml and 50 mg/ml. Oxaliplatin is dosed at 5 mg/kg. The vehicle solutions for compound A and capecitabine are as follows:
The following treatment groups were used in the study • 1. Vehicle Control qd×5 po+qd×14 po • 2. Compound A 80 mg/kg qd×5 po • 3. Compound A 100 mg/kg qweekly×3 po • 4. Capecitabine 200 mg/kg qd×14 po • 5. Oxaliplatin 5 mg/kg qweekly ip×2 • 6. Capecitabine 200 mg/kg qd×14po+Oxaliplatin 5 mg/kg qweekly ip×2 • 7. Compound A 80 mg/kg qd×5+Capecitabine 200 mg/kg qd×14 • 8. Compound A 100 mg/kg qweekly×3+Capecitabine 200 mg/kg qd×14 • 9. Compound A 80 mg/kg qd×5+Capecitabine 200 mg/kg qd×14+Oxaliplatin 5 mg/kg qweekly ip×2 • 10. Compound A 100 mg/kg qweekly×3+Capecitabine 200 mg/kg qd×14+Oxaliplatin 5 mg/kg qweekly ip×2

[1] abbreviates: Oxaliplatin 5 mg/kg qweeklyx2 ip.
Setting [2] is: Capecitabine 200 mg/kg qdx14 po.

With `O=C(O)C(=O)O.[NH-][C@@H]1CCCC[C@H]1[NH-].[Pt+2]` [Oxaliplatin], under setting [1], the “% Increased Life Span” value is recorded as 0%, the “% Inhibition (EOS)” value was 23%, the “% T/C (EOS)” value is given as 77% and the “Mean Tumor Volume” value was found to be 130.60.

For `CCCCCOC(=O)Nc1nc(=O)n([C@@H]2O[C@H](C)[C@@H](O)[C@H]2O)cc1F` [Capecitabine, 5′-deoxy-5-fluoro-N-[(pentyloxy)-carbonyl]-cytidine], under setting [2], the “% Increased Life Span” value stood at 36%, the “% Inhibition (EOS)” value was 75%, the “% T/C (EOS)” value turned out to be 25% and the “Mean Tumor Volume” value is 129.07.

Consider `COc1cc(C(=O)O)ccc1NC(=O)[C@@H]1N[C@@H](CC(C)(C)C)[C@](C#N)(c2ccc(Cl)cc2F)[C@H]1c1cccc(Cl)c1F` [Cpd. A, 4-{[(2R,3S,4R,5S)-4-(4-Chloro-2-fluoro-phenyl)-3-(3-chloro-2-fluoro-phenyl)-4-cyano-5-(2,2-dimethyl-propyl)-pyrrolidine-2-carbonyl]-amino}-3-methoxy-benzoic acid], for which, under “Cpd A 80 mg/kg qdx5 po”, the “% Increased Life Span” value was 21%, the “% Inhibition (EOS)” value was 64%, the “% T/C (EOS)” value is 38% and the “Mean Tumor Volume” value worked out at 130.73. Moreover, where the note is “Cpd A 100 mg/kg qwklyx3 po”, the “% Increased Life Span” value amounted to 21%, the “% Inhibition (EOS)” value amounted to 60%, the “% T/C (EOS)” value came out at 40% and the “Mean Tumor Volume” value was 130.23.
